The values below come from patent US20240350589A1, “IL-2/IL-15RBETAGAMMA AGONIST COMBINATION WITH ANTIBODY-DRUG CONJUGATES FOR TREATING CANCER” (Cytune Pharma, priority 2021, published 2024).

In data set [1] the test system is CD3-CD56+ cells (NK cells) of human PBMCs. Put plainly: In vitro activation of NK cells: RLI-15 treated PBMCs co-incubated with treated AGS tumor cells. It is filed as cell-based. The protocol:
As controls non-treated tumor cells were incubated with non-treated PBMC (KadNT in the ADC group) and non-treated tumor cells were incubated with RLI-15 treated PBMC (KadNT in the RLI+ADC group).

The test system of data set [2] is huHER2/EMT-6 tumors. In words: Orthotopic huHER2/EMT-6 breast cancer model in vivo. The note with it: RLI-15 1 mg/kg s.c. days 15-18, Kadcyla 15 mg/kg i.v. days 0 and 7. On the set-up: species or system Balb/c AnN mice. The protocol:
The study was initiated when the initial mean tumor volume among individual groups reached 140 mm^3. […] RLI-15 was administered in 4 sequential doses on study days 15-18 to amplify the numbers and activate immune cells. The antitumor efficacy was evaluated on the level of absolute tumor volume change. Safety has been monitored by body weight loss in individual animals. HER2 expression in individual tumors was analyzed using HercepTest™ (Dako) at the endpoint to map for potential heterogeneity of the model (staining was performed according to the instructions given by the manufacturer).

The subject of data set [3] is AGS tumor cell line. Put plainly: In vitro killing of AGS tumor cells, AnnexinV/DAPI flow cytometry. Format: cell-based, human. The note with it: doxorubicin 1.2 μM or cisplatin 100 μM 48 h; Kadcyla 7 μg/ml 72 h. (A flow cytometer gives signals particle by particle.)
Data set [4] has as its system AGS tumor cell line. Put plainly: Cell surface exposure of ICD markers CRT, HSP70, HSP90 on early apoptotic AGS cells (flow cytometry). It is filed as cell-based, human. Particulars: doxorubicin 1.2 μM, cisplatin 100 μM 48 h vs Kadcyla 7 μg/ml 72 h. The protocol: The cells are collected and washed twice with PBS. The cells are then incubated for 30 min with primary antibody diluted in cold blocking buffer (2% fetal bovine serum in PBS), followed by washing and incubation with an […] monoclonal secondary antibody in blocking solution. Each sample was then analyzed using a FACScan Aria (BD Bioscience). Cell surface expression of HSP70, HSP90 and CRT is analyzed on non-permeabilized annexin V-positive/DAPI-negative cells.
The expression of ICD markers Hsp70, Hsp90 and CRT as well as NK cells ligands was measured by flow cytometry on these early apoptotic (AnnexinV^+/DAPI^−) cell populations using anti-calreticulin antibody (Abcam, USA), anti-HSP70 (R&D Systems, USA), anti-HSP90 (Enzo Life Sciences, USA). APC AffiniPure F(ab′)2 Fragment Goat Anti-Mouse (Jackson ImmunoResearch) was used as a secondary antibody.

The conditions of data set [5]: in vivo; cited from earlier work.

“Also recorded” adds a separate entry of the source.

“RLI-15: receptor-linker-interleukin fusion protein of the human IL-15Rα sushi+ fragment with the human IL-15 (SEQ ID NO: 9)”: the “proliferation of CD3-CD56+ NK cells” value in data set [1] (PBMCs +/- 2.5 ng/ml RLI-15 72 h, AGS cells +/- Kadcyla 72 h, 10:1, 4 h) was “increase of total number of CD3−CD56^+ cells; also recorded: strong proliferation; also recorded: increase of total number of CD3^−CD56^+ cells”. Moreover, the “% of IFNγ+ NK cells” value in data set [1] (PBMCs +/- 2.5 ng/ml RLI-15 72 h, AGS cells treated with Kadcyla 5-10 μg/ml 72 h, 10:1, 4 h) is recorded as “only moderate”. The “% of CD107a+ cells, KadNT group” value in data set [1] (RLI-15 treated PBMC with non-treated tumor cells) is reported as less than 40%. Further, in data set [2], the “tumor volume at the end of the study” value is on record as “intermediate tumor volume increase”. Besides, the “complete tumor eradication / complete and durable responses” value in data set [2] (groups of 8 mice) is reported as 2 out of 8.
On to `COc1cccc2c1C(=O)c1c(O)c3c(c(O)c1C2=O)C[C@@](O)(C(=O)CO)C[C@@H]3O[C@H]1C[C@H](N)[C@H](O)[C@H](C)O1` [doxorubicin], for which the “induction of early apoptosis compared with Kadcyla” value in data set [3] is listed as “even better suitable to induce early apoptosis”. The “mean fluorescent intensity (MFI) of ICD markers compared with Kadcyla” value in data set [4] is given as “about equal”.
With Todelvy, in data set [5], the half-life (usually the time in which the quantity being followed falls by half) is 16 h.
`N.N.[Cl][Pt][Cl]` [cisplatin]: the “induction of early apoptosis compared with Kadcyla” value in data set [3] is listed as “equally”. For the same compound, the “mean fluorescent intensity (MFI) of ICD markers compared with Kadcyla” value in data set [4] is “stronger induction”.
